# Assay results published in patent US7074814B2, “3-substituted indoles and derivatives thereof as therapeutic agents” (Warner-Lambert Company LLC, priority 2003, dated 2006).
# Target: T1, p101/p110γ protein (PI3Kγ) (Homo sapiens, UniProt P48736)
# T1 construct: HA; made in house; host or cells: Spodoptera frugiperda (Sf9) cells, baculovirus coinfection
# Experiment: PI3Kγ in vitro kinase assay
# Format: biochemical
# Conditions: purified recombinant p101/p110γ with G protein β1/γ2 subunits; 20 μM ATP, 25 μM PIP2; 20 minutes at room temperature
# Procedure: Spodtera frugiperda cells, grown in ESF921 media, were coinfected with baculovirus expressing a glu-tagged p101 and baculovirus expressing an HA-tagged p110γ, at a 3:1 ratio of p101 baculovirus to p110γ baculovirus. Sf9 cells were grown to 1×10^7 total cells/mL in 10 L bioreactors and harvested 48–72 hours post infection. Samples of infected cells were then tested for expression of […] PI3 kinase by immunoprecipitation and Western Blot analysis methods (see below).
# To purify PI3Kγ, 4 volumes of room temperature hypotonic lysis buffer (1 mM MgCl2, 1 mM DTT, 5 mM EGTA, 1 mM Pefabloc, 0.5 μM aprotinin, 5 μM leupeptin, 2 μM pepstatin, 5 μM E64, pH 8) per gram of cell paste, was poured onto frozen cell pellets with stirring, then lysed in a nitrogen “bomb” at 400 psi (599HC T316, Parr Instrument Co, Moline, Ill.). NaCl was added to 150 mM, and sodium cholate was added to 1% and mixed for another 45 minutes. The lysates were clarified by centrifugation for 25 minutes at 14,000 rpm. The lysates were then loaded over anti-glu-linked Protein-G Sepaharose beads (Covance Research Products, Richmond, Calif.) using 20 mL resin/50 g cell paste. The column was washed with 15 volumes of wash buffer (1 mM DTT, 0.2 mM EGTA, 1 mM Pefabloc, 0.5 μM aprotinin, 5 μM leupeptin, 2 μM pepstatin, 5 μM E64, 150 mM NaCl, 1% sodium cholate, pH 8). PI3Kγ was eluted with 6 column volumes of wash buffer that contain 100 μg/mL of a peptide that competes for binding of the glu tag. The column fractions with the eluted protein (determined by taking OD280 readings) were collected and dialyzed in 0.2 mM EGTA, 1 mM DTT, 1 mM Pefabloc, 5 μM leupeptin, 0.5% sodium cholate, 150 mM NaCl, and 50% glycerol, pH 8. The fractions were stored at −80° C. until further use.
# Spodtera frugiperda cells were coinfected with baculovirus expressing a glu-tagged G protein β1 and baculovirus expressing a G protein β2, at a 1:1 ratio of glu-tagged G protein β1 baculovirus to G protein β2 baculovirus. Sf9 cells are grown in 10 L bioreactors and harvested 48–72 hours post infection. Samples of infected cells were tested for G protein β1/β2 expression by Western Blot analysis, as described below. Cell lysates were homogenized and loaded onto a column of glu-tagged beads as in Biological Example 1 and competed off the column with a glu peptide and processed as described in Biological Example 1.
# The inhibitory properties of the compounds in Table 1 were assayed in an in vitro PI3K assay. In a 96-well polypropylene plate, each well was spotted with 2 μL of 50 times the desired final concentration of compound in DMSO. Purified recombinant p101/p110γ protein (0.03 μg; ˜2.7 nM) and G protein β1/γ2 subunits (0.09 μg; ˜57.7 nM) for each reaction was combined in the assay buffer (30 mM HEPES, 100 mM NaCl, 1 mM EGTA, and 1 mM DTT). ATP and [γ-^32P-ATP] (0.09 μCi) were added to this mixture so that the final ATP concentration in the reaction was 20 μM. Lipid micelles were formed by sonicating phosphatidylinositol-4,5-diphosphate (PIP2), phosphatidylethanolamine (PE), and Na-cholate in the assay buffer for 10 minutes, adding MgCl2 and incubating on ice for 20 minutes, for final concentrations of 25 μM PIP2, 300 μM PE, 0.02% Na-cholate, and 10 mM MgCl2 in the reaction. The reactions were started by adding equal volumes lipid and enzyme mixture in a total volume of 50 μL, allowed to run for 20 minutes at room temperature, and stopped with 100 μL 75 mM H3PO4. The lipid product was transferred to a glass fiber filter plate and washed with 75 mM H3PO4 several times. The presence of radioactive lipid product (PIP3) was measured by adding Wallac Optiphase mix to each well and counting in a Wallac 1450 Trilux plate reader (PerkinElmer Life Sciences Inc., Boston, Mass. 02118). The IC50 for each compound tested is reported in μM in Table 1: […]
# T1 sequence (P48736 whole entry, species assumed): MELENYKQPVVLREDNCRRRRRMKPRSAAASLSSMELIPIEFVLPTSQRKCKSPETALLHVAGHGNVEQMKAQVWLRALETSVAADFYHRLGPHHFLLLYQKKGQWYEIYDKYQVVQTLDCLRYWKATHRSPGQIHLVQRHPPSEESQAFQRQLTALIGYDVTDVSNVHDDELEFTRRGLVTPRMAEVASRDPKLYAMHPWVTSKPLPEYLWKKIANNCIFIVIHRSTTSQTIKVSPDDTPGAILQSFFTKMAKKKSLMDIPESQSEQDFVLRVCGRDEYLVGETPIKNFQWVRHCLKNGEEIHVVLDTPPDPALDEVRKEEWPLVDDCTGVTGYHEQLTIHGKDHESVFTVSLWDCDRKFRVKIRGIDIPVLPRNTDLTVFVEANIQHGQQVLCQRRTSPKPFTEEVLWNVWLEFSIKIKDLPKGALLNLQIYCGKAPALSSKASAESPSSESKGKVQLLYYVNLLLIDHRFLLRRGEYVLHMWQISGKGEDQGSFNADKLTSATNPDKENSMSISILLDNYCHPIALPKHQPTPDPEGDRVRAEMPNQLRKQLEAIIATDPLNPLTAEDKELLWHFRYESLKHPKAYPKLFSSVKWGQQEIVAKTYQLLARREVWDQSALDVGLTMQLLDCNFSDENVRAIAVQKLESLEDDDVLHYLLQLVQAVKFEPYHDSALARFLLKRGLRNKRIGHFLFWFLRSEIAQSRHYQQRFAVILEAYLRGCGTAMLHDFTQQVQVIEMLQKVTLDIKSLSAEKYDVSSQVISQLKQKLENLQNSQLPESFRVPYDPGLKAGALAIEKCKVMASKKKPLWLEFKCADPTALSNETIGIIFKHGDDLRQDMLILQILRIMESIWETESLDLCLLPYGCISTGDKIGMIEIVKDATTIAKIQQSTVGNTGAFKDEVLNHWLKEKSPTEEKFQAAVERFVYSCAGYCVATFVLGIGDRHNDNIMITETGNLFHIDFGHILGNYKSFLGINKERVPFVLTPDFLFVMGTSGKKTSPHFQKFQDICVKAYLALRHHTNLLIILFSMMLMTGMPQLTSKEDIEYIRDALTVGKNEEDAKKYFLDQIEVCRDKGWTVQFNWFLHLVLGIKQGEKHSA
# T1 sequence (Q8WYR1 whole entry partner, species assumed): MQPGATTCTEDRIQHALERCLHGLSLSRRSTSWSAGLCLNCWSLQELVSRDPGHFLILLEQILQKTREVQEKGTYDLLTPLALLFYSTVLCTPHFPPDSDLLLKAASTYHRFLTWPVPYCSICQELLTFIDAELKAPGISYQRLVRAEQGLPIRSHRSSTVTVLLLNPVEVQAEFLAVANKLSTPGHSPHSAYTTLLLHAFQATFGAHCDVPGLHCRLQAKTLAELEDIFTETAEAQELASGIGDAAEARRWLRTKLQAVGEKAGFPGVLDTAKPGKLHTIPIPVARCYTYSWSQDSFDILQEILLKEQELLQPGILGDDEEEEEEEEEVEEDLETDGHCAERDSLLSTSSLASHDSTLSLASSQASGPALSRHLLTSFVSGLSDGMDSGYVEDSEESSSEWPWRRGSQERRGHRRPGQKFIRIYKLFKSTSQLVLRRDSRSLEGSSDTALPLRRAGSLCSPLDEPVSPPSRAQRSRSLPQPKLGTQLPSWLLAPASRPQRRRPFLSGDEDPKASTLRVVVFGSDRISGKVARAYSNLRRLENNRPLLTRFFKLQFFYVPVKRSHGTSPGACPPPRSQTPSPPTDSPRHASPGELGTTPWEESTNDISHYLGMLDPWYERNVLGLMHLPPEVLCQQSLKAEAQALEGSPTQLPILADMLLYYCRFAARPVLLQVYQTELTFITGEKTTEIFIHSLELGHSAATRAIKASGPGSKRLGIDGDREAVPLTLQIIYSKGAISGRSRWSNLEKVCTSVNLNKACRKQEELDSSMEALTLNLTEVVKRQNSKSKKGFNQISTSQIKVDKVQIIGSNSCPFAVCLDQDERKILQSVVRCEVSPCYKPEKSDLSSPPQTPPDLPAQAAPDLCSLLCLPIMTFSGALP
row,Compound,IC50 [nM]
1,"1-Ethyl-5,6-dimethoxy-3-phenyl-1H-indole-2-carboxylic acid (1H-tetrazol-5-yl)-amide [Example 6]",6600
2,"5,6-Dimethoxy-3-phenyl-1-propyl-1H-indole-2-carboxylic acid (1H-tetrazol-5-yl)-amide [Example 7]",4140
3,"COc1cc2[nH]c(C(=O)Nc3nn[nH]n3)c(Sc3ccc(Cl)c(Cl)c3)c2cc1OC [Example 2, 3-(3,4-Dichloro-phenylsulfanyl)-5,6-dimethoxy-1H-indole-2-carboxylic acid (2H-tetrazol-5-yl)-amide]",1840
4,"COc1cccc(Sc2c(C(=O)Nc3nn[nH]n3)[nH]c3cc(OC)c(OC)cc23)c1 [Example 5, 5,6-Dimethoxy-3-(3-methoxy-phenylsulfanyl)-1H-indole-2-carboxylic acid (2H-tetrazol-5-yl)-amide]",725

# More lines, now with the values ahead:
row,IC50 [nM],Compound
1,585,"COc1cc2[nH]c(C(=O)Nc3nn[nH]n3)c(Sc3ccccc3C)c2cc1OC [Example 1, 5,6-Dimethoxy-3-o-tolylsulfanyl-1H-indole-2-carboxylic acid (2H-tetrazol-5-yl)-amide]"
2,550,"COc1cc2c(Sc3ccccc3)c(C(=O)Nc3nn[nH]n3)n(C)c2cc1OC [Example 3, 5,6-Dimethoxy-1-methyl-3-phenylsulfanyl-1H-indole-2-carboxylic acid (2H-tetrazol-5-yl)-amide]"
3,210,"COc1cc2[nH]c(C(=O)Nc3nn[nH]n3)c(Sc3ccccc3)c2cc1OC [Example 4, 5,6-Dimethoxy-3-phenylsulfanyl-1H-indole-2-carboxylic acid (2H-tetrazol-5-yl)-amide]"
